From patent US7351722B2, “Use of Mangafodipir for treating oxidative stress effects” (Universite Rene Descartes (Paris V), priority 2001, dated 2008)

System: Hep 3B human hepatic cell line
Conditions: 62.5, 125, 250 μg/ml, 1 h before H2O2, MTT after 12 h
Method: The Hep 3B human hepatic cell line was also used for these experiments.
The cells were seeded in a 96-well culture plate, in a proportion of 5×10^4 cells per well, in a final volume of 50 μl.
One hundred μl of Mangafodipir solution at various concentrations (62.5, 125, 250 μg/ml) were deposited into each well (three wells per concentration tested). After incubation for one hour, 50 μl of a solution of H2O2 at 4 mM were deposited into each well.

## Manganese dipyridoxyl phosphate [Mangafodipir]
  mortality of hepatic cells under hydrogen peroxide-mediated oxidative stress: prevents the mortality of hepatic cells
